According to ChEMBL document CHEMBL3774360, “Potent multitarget FAAH-COX inhibitors: Design and structure-activity relationship studies” (Eur J Med Chem, 2016):

How the values were obtained:
Homo sapiens [1] = organism: Homo sapiens; assay: Binding affinity to 5-HT1 receptor (unknown origin) at 10 uM
[2] = biological target: Estrogen receptor (Homo sapiens) (UniProt P03372); assay: Binding affinity to human estrogen receptor at 10 uM by radioligand binding assay
[3] = biological target: Androgen receptor (Homo sapiens) (UniProt P10275); assay: Binding affinity to human androgen receptor at 10 uM by radioligand binding assay
[4] = biological target: Vasopressin V2 receptor (Homo sapiens) (UniProt P30518); assay: Binding affinity to human V2 receptor at 10 uM by radioligand binding assay
Sequence of Vasopressin V2 receptor (Homo sapiens) (P30518 whole entry): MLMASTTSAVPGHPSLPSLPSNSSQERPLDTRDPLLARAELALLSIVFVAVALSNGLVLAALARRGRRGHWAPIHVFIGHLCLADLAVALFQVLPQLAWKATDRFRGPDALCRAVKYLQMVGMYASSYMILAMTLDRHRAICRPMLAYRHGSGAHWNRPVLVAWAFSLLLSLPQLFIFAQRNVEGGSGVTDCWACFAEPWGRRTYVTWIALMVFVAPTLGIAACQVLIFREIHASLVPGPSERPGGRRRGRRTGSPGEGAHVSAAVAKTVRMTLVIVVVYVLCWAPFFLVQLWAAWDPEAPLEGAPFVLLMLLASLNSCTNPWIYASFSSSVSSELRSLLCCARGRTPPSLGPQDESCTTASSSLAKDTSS

Homo sapiens [5] = organism: Homo sapiens; assay: Binding affinity to L-type calcium channel verapamil binding site (unknown origin) at 10 uM by radioligand binding assay
[6] = test system: Voltage-gated potassium channel; assay: Binding affinity to voltage-gated potassium channel (unknown origin) at 10 uM by radioligand binding assay; assay type: protein assay; details: human
[7] = biological target: Sodium-dependent noradrenaline transporter (Homo sapiens) (UniProt P23975); assay: Binding affinity to human norepinephrine transporter at 10 uM by radioligand binding assay
Homo sapiens [8] = organism: Homo sapiens; assay: Binding affinity to GABA transporter (unknown origin) at 10 uM by radioligand binding assay
[9] = biological target: Thromboxane A2 receptor (Homo sapiens) (UniProt P21731); assay: Antagonist activity against human TP receptor at 10 uM; parameters: scale not given: the % may be the effect or the level left
Sequence of Thromboxane A2 receptor (Homo sapiens) (P21731 whole entry): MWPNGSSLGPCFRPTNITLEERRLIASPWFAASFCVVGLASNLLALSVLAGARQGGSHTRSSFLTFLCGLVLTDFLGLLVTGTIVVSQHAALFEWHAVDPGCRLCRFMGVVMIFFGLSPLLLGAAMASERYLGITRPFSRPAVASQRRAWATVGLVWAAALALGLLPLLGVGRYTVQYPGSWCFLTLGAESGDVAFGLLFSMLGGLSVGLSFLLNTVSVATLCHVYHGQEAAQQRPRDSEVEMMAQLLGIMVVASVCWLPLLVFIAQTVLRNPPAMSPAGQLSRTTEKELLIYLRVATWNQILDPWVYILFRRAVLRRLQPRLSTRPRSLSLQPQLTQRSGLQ

[10] = biological target: Prostaglandin G/H synthase 1 (Homo sapiens) (UniProt P23219); assay: Binding affinity to human COX1 at 10 uM
[11] = biological target: Polyunsaturated fatty acid 5-lipoxygenase (Homo sapiens) (UniProt P09917); assay: Binding affinity to human 5-lipoxygenase at 10 uM
[12] = biological target: Dual specificity calcium/calmodulin-dependent 3',5'-cyclic nucleotide phosphodiesterase 1B (Homo sapiens) (UniProt Q01064); assay: Binding affinity to human PDE1B at 10 uM
[13] = biological target: cGMP-dependent 3',5'-cyclic phosphodiesterase (Homo sapiens) (UniProt O00408); assay: Binding affinity to human PDE2A1 at 10 uM
[14] = biological target: M-phase inducer phosphatase 1 (Homo sapiens) (UniProt P30304); assay: Binding affinity to CDC25A (unknown origin) at 10 uM
Sequence of M-phase inducer phosphatase 1 (Homo sapiens) (P30304 whole entry): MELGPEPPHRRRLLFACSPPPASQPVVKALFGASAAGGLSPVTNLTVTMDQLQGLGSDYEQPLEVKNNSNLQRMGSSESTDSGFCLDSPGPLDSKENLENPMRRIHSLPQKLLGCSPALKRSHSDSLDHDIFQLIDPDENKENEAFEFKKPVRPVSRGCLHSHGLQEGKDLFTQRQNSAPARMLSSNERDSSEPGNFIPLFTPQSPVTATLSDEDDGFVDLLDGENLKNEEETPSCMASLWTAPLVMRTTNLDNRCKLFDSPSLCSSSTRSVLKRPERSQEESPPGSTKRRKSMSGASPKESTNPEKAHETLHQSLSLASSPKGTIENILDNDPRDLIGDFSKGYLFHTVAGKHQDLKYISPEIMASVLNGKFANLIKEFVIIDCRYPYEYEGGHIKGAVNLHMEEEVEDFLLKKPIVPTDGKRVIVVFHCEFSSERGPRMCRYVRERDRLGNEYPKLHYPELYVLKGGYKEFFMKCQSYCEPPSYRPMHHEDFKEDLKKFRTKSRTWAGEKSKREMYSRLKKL

[15] = biological target: Acetylcholinesterase (Homo sapiens) (UniProt P22303); assay: Binding affinity to human acetylcholinesterase at 10 uM
Sequence of Acetylcholinesterase (Homo sapiens) (P22303 whole entry): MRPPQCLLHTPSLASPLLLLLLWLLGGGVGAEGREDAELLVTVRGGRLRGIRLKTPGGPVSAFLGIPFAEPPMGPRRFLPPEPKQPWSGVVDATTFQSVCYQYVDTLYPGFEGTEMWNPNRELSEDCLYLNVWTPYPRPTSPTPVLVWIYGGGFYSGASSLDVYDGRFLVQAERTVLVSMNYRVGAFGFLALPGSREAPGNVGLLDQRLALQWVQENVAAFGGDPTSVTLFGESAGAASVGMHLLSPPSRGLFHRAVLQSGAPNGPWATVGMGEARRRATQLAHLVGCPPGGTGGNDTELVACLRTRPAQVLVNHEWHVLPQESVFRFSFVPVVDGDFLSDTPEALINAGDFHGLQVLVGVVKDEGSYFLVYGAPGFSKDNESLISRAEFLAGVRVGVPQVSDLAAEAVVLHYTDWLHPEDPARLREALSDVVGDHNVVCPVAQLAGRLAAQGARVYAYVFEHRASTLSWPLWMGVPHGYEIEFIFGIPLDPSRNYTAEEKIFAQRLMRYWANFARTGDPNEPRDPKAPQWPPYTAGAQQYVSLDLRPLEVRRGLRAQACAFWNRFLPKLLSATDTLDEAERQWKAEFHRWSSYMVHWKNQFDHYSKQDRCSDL

[16] = biological target: 4-aminobutyrate aminotransferase, mitochondrial (Homo sapiens) (UniProt P80404); assay: Binding affinity to GABA transaminase (unknown origin) at 10 uM
[17] = biological target: Amine oxidase [flavin-containing] A (Homo sapiens, UniProt P21397); assay: Binding affinity to human MAO-A at 10 uM
Sequence of Amine oxidase [flavin-containing] A (P21397 whole entry): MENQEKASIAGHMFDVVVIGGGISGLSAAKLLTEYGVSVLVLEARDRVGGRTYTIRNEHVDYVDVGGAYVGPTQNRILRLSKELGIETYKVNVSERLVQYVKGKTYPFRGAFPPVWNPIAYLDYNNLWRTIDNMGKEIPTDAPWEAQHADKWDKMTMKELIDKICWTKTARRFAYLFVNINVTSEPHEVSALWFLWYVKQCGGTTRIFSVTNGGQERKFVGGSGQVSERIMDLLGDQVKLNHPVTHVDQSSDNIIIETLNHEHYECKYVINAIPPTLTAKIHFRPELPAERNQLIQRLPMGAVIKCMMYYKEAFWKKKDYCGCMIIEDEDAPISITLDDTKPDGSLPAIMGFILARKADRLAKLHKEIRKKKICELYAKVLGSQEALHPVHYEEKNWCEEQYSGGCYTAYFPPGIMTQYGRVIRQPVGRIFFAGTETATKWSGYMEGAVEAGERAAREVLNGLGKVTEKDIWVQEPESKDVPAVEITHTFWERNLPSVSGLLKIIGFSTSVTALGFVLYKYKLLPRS

[18] = biological target: Sodium/potassium-transporting ATPase (Homo sapiens) (UniProt P05023+P14415+P05026+P50993+P54709+P13637+Q13733+P54710); assay: Binding affinity to sodium/potassium-transporting ATPase (unknown origin) at 10 uM; assay type: protein-complex assay
[19] = biological target: Centromere-associated protein E (Homo sapiens) (UniProt Q02224); assay: Binding affinity to human CENP-E at 10 uM
[20] = biological target: Protein deacetylase HDAC6 (Homo sapiens) (UniProt Q9UBN7); assay: Binding affinity to human HDAC6 at 10 uM
[21] = biological target: NAD-dependent protein deacetylase sirtuin-1 (Homo sapiens) (UniProt Q96EB6); assay: Inhibition of human sirtuin 1 at 10 uM; parameters: scale not given: the % may be the effect or the level left
Homo sapiens [22] = organism: Homo sapiens; assay: Activation of human guanylyl cyclase at 10 uM
[23] = biological target: Adenosine receptor A2a (Homo sapiens) (UniProt P29274); assay: Binding affinity to human adenosine A2A receptor at 10 uM by radioligand binding assay
[24] = biological target: Adrenergic receptor alpha-1 (Homo sapiens) (UniProt P35348+P25100+P35368); assay: Binding affinity to human alpha-1 adrenergic receptor (unknown origin) at 10 uM by radioligand binding assay
[25] = biological target: Beta-1 adrenergic receptor (Homo sapiens) (UniProt P08588); assay: Binding affinity to beta-1 adrenergic receptor (unknown origin) at 10 uM by radioligand binding assay
[26] = biological target: Type-1 angiotensin II receptor (Homo sapiens) (UniProt P30556); assay: Binding affinity to human angiotensin receptor 1 at 10 uM by radioligand binding assay
[27] = biological target: Calcitonin gene-related peptide 1 (Homo sapiens) (UniProt P06881); assay: Binding affinity to CGRP1 (unknown origin) at 10 uM
[28] = biological target: Cannabinoid receptor 1 (Homo sapiens) (UniProt P21554); assay: Binding affinity to human cannabinoid receptor 1 at 10 uM by radioligand binding assay
[29] = biological target: Cannabinoid receptor 2 (Homo sapiens) (UniProt P34972); assay: Binding affinity to human cannabinoid receptor 2 at 10 uM by radioligand binding assay
Sequence of Cannabinoid receptor 2 (Homo sapiens) (P34972 whole entry): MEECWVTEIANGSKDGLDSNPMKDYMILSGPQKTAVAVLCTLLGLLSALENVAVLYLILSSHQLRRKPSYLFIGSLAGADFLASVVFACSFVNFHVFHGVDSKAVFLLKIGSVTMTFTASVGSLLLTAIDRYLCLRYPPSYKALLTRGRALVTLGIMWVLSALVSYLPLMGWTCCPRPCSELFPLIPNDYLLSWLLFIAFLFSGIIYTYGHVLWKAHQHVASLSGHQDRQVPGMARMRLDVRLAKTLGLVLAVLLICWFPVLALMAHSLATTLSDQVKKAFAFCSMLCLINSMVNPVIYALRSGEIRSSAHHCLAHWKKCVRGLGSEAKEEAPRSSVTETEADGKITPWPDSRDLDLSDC

[30] = biological target: Gastrin/cholecystokinin type B receptor (Homo sapiens) (UniProt P32239); assay: Binding affinity to human cholecystokinin receptor type B at 10 uM by radioligand binding assay
[31] = biological target: Corticotropin-releasing factor receptor 1 (Homo sapiens) (UniProt P34998); assay: Binding affinity to human CRF1 receptor at 10 uM by radioligand binding assay
[32] = biological target: D(2) dopamine receptor (Homo sapiens) (UniProt P14416); assay: Binding affinity to human dopamine D2S receptor at 10 uM by radioligand binding assay
[33] = biological target: D(4) dopamine receptor (Homo sapiens) (UniProt P21917); assay: Binding affinity to human dopamine D4.4 receptor at 10 uM by radioligand binding assay
Sequence of D(4) dopamine receptor (Homo sapiens) (P21917 whole entry): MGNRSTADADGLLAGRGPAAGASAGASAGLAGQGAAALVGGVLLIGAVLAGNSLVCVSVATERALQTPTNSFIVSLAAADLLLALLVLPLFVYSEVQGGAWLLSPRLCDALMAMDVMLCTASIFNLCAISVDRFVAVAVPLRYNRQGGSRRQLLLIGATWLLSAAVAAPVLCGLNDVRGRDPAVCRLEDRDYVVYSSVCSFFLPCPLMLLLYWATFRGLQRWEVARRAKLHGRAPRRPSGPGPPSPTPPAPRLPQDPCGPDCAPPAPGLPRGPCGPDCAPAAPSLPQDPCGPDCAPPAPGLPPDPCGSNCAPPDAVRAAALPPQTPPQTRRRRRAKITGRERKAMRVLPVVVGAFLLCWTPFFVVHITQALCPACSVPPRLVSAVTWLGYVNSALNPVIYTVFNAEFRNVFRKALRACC

Homo sapiens [34] = organism: Homo sapiens; assay: Binding affinity to AMPA receptor (unknown origin) at 10 uM by radioligand binding assay
Homo sapiens [35] = organism: Homo sapiens; assay: Binding affinity to kainate receptor (unknown origin) at 10 uM by radioligand binding assay
[36] = biological target: Histamine H1 receptor (Homo sapiens) (UniProt P35367); assay: Binding affinity to human histamine H1 receptor at 10 uM by radioligand binding assay
Sequence of Histamine H1 receptor (Homo sapiens) (P35367 whole entry): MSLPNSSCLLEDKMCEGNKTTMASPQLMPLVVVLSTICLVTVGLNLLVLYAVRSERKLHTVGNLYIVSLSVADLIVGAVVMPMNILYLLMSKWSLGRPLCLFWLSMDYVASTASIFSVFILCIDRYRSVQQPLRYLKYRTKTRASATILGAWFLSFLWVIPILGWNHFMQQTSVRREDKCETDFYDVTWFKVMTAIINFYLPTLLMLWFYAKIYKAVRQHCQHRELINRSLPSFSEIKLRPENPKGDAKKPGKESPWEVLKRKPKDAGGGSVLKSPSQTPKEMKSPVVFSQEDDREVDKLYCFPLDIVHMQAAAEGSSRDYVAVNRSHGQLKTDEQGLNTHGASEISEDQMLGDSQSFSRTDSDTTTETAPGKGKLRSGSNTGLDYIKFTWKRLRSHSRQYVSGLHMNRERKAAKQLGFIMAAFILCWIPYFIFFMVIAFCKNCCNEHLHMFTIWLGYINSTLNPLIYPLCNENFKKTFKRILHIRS

[37] = biological target: Histamine H3 receptor (Homo sapiens) (UniProt Q9Y5N1); assay: Binding affinity to human histamine H3 receptor at 10 uM by radioligand binding assay
Homo sapiens [38] = organism: Homo sapiens; assay: Binding affinity to I2 imidazoline binding site (unknown origin) at 10 uM by radioligand binding assay
[39] = biological target: Leukotriene B4 receptor (Homo sapiens) (UniProt Q9NPC1+Q15722); assay: Binding affinity to human leukotriene B4 receptor at 10 uM by radioligand binding assay; assay type: protein assay
Sequence of Leukotriene B4 receptor (Homo sapiens) (Q15722 whole entry, looked up): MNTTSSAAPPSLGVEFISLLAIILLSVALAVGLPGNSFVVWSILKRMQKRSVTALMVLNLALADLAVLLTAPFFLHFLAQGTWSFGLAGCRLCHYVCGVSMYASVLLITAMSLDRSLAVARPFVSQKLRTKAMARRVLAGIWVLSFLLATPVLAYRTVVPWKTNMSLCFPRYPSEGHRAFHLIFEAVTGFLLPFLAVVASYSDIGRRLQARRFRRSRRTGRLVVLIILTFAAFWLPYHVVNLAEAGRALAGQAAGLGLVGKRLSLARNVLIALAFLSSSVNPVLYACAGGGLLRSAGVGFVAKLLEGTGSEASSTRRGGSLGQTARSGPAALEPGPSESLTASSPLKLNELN
Sequence of Leukotriene B4 receptor (Homo sapiens) (Q9NPC1 whole entry, looked up): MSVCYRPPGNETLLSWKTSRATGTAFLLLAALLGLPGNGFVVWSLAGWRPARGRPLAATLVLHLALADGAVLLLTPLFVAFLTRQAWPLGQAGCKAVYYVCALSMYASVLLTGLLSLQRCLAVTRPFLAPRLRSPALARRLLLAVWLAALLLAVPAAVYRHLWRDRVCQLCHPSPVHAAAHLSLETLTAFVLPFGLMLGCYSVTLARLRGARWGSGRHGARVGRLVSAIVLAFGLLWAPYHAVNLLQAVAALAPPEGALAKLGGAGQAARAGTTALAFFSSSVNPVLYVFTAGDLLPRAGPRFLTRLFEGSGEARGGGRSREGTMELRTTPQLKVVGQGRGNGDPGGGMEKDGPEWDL

[40] = biological target: Melanocortin receptor 4 (Homo sapiens) (UniProt P32245); assay: Binding affinity to human melanocortin-4 receptor at 10 uM by radioligand binding assay
[41] = biological target: Melatonin receptor type 1A (Homo sapiens) (UniProt P48039); assay: Binding affinity to human melatonin receptor type 1 at 10 uM by radioligand binding assay
Homo sapiens [42] = organism: Homo sapiens; assay: Binding affinity to human muscarinic receptor at 10 uM by radioligand binding assay
[43] = biological target: Neuronal acetylcholine receptor; alpha4/beta2 (Homo sapiens) (UniProt P17787+P43681); assay: Binding affinity to human N neuronal alpha4beta2 receptor at 10 uM by radioligand binding assay; assay type: protein-complex assay
[44] = biological target: Opioid receptors; mu/kappa/delta (Homo sapiens) (UniProt P41145+P41143+P35372); assay: Binding affinity to opioid receptor (unknown origin) at 10 uM by radioligand binding assay

Sequence of Estrogen receptor (Homo sapiens) (P03372 whole entry): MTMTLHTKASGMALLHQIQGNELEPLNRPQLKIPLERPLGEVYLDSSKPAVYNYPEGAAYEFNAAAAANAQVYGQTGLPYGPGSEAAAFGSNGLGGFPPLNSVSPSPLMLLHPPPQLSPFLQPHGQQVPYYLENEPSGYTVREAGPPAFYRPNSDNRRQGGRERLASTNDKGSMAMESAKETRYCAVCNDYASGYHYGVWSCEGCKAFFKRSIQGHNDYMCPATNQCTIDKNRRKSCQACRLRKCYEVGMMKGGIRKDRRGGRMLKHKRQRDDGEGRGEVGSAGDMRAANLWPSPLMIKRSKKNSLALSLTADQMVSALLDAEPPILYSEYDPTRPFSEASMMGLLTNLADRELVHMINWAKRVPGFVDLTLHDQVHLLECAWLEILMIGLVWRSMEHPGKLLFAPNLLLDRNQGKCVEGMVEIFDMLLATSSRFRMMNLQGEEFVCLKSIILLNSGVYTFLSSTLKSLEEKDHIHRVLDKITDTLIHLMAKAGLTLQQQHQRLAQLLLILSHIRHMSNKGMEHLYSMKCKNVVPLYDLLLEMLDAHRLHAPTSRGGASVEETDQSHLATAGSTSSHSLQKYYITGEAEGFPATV

`CCCCCCNC(=O)Oc1cccc(-c2ccc([C@H](C)C(=O)O)cc2F)c1` gave an Activity (Homo sapiens [1]) of 7.8%, an Activity [2] of -10.5% and an Activity [3] of 3.7%. For the same compound, the Activity [4] was 4.2%, the Activity (Homo sapiens [5]) was -7.7% and the Activity [6] was -9.9%. It also gave an Activity [7] of 7%, an Activity (Homo sapiens [8]) of -3.3% and an Activity [9] of 2.9%. For the same compound, the Activity [10] was 99.2%, the Activity [11] was 3.8% and the Activity [12] was 28.3%. It also gave an Activity [13] of -1.4%, an Activity [14] of -6.3% and an Activity [15] of -4.8%. The Activity [16] was 7.6%, the Activity [17] was -11.2% and the Activity [18] was 0.9%. The Activity [19] was -3.3%, the Activity [20] was -10.6% and the Activity [21] was -1.5%. For the same compound, the Activity (Homo sapiens [22]) was 6.7%, the Activity [23] was -7.3% and the Activity [24] was -3.8%. The Activity [25] was 5.2%, the Activity [26] was -3.4% and the Activity [27] was -11.7%. The Activity [28] was 38.1%, the Activity [29] was -3% and the Activity [30] was 26.5%. It also gave an Activity [31] of 11.9%, an Activity [32] of -5% and an Activity [33] of -4.4%. For the same compound, the Activity (Homo sapiens [34]) was -4.6%, the Activity (Homo sapiens [35]) was 17.1% and the Activity [36] was 1.8%. It also gave an Activity [37] of -9.3%, an Activity (Homo sapiens [38]) of -1.8% and an Activity [39] of 1.2%. For the same compound, the Activity [40] was 0.9%, the Activity [41] was -9.9% and the Activity (Homo sapiens [42]) was 5%. The Activity [43] was -5.6% and the Activity [44] was 15.5%.
